The values below come from patent US20060084682A1, “Thrombopoietin mimetics” (priority 2002, published 2006).

The target in this test is T1, human Tpo-R (Homo sapiens, UniProt P40238).
T1 construct: expressed in transfected cells; host or cells: murine BaF3 cell line
T1 sequence (P40238 26-635): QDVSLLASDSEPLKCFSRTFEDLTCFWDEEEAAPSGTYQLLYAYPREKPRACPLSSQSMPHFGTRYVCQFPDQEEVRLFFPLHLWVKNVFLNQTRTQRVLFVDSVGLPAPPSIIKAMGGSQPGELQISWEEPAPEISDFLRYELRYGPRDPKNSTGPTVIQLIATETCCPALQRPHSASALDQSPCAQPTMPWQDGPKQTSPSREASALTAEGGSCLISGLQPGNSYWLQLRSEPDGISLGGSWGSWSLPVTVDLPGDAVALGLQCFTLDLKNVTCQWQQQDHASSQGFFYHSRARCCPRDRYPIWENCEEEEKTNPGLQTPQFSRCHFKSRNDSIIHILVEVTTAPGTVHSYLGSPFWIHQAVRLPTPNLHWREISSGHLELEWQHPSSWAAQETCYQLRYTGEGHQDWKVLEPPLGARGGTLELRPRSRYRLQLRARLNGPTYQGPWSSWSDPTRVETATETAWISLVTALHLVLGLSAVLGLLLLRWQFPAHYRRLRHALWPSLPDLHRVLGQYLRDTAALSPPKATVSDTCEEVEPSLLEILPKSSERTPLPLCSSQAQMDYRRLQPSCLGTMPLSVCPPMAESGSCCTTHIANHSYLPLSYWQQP
The experiment in a line: in vitro proliferation assay using the murine BaF3 cell line transfected with human Tpo-R. In kind it is cell-based. To be noted: at a concentration of 2 uM. The procedure:
Compounds of the present invention were tested for potency as mimetics of TPO in an in vitro proliferation assay using the murine BaF3 cell line transfected with human Tpo-R. Survival and growth is dependent on the presence of TPO.

As for `O=C1NC(=S)SC1=Cc1ccc2[nH]c(-c3cccc(-c4ccc(Cl)c(Cl)c4)n3)nc2c1` [Example 1, 5-{2-[6-(3,4-dichloro-phenyl)-pyridin-2-yl]-1H-benzoimidazol-5-ylmethylene}-2-thioxo-thiozolidin-4-one], the “activation, % of control (control is the maximal response to TPO), proliferation of BaF3 cells” value was “about 20 % of control”.
